# Source: publication PMC3071284 (Bioorganic & medicinal chemistry, 2011)
# Experiments:
# T. cruzi-infected mice = conditions: cited from earlier work
# [1] = cited from earlier work
# [2] = biological target: T1, T. cruzi farnesyl diphosphate synthase (TcFPPS) (Trypanosoma cruzi, UniProt Q8WS26); conditions: cited from earlier work
# T1 sequence (Q8WS26 64-425 limits assumed): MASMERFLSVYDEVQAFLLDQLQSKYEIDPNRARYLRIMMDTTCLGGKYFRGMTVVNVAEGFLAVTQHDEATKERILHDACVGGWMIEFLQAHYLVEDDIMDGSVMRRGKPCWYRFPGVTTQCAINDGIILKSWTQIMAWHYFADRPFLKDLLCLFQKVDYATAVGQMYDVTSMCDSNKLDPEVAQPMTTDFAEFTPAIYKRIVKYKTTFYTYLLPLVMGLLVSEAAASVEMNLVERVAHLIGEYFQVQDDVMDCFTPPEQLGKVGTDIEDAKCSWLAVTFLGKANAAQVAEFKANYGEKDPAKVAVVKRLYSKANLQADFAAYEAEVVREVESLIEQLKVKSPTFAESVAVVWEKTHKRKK
# T. gondii tachyzoites = T. gondii tachyzoites growth inhibition assay; assay type: cell-based, Toxoplasma gondii; conditions: result in words
compound,measurement,setting,value
O=P(O)(O)C(O)(Cc1cccnc1)P(=O)(O)O [risedronate],survival of T. cruzi-infected mice,T. cruzi-infected mice,significantly increase survival
CN(C)c1ccc(C(=C2C=CC(=[N+](C)C)C=C2)c2ccc(N(C)C)cc2)cc1 [Crystal violet],carcinogenicity in in vivo assays,[1],carcinogenic
CCCCCCNCC(P(=O)(O)O)P(=O)(O)O [Compound 8],mode of inhibition of TcFPPS,[2],competitive inhibitor
"CCCCCCCCCCNCC(P(=O)(O)O)P(=O)(O)O [Compound 24, 1-[(n-Dec-1-ylamino)ethyl] 1,1-bisphosphonic Acid]",antiparasitic activity against T. gondii cells,T. gondii tachyzoites,practically devoid of antiparasitic activity
